A short description of this series: gradient 5% acetonitrile 3 min, to 50% in 2 min, to 85% in 15 min, held 3 min, 100 µL/min. The following applies: column: Zorbax Extend-C18 2.1 x 50 mm; eluents: water / acetonitrile, 0.1% formic acid. The essentials: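 Retention times of pure standards were taken from adduct peaks that were selected by computer and manually inspected. Over 3 months, mixtures of ~100 molecules were run by HPLC–quadrupole time-of-flight mass spectrometry in positive and negative ionization mode. The Zorbax Extend-C18 column (2.1 × 50 mm, 1.8 μm) ran at 100 μL/min in water and acetonitrile, each containing 0.1% formic acid, with 40 μL dead volume and 900 μL dwell volume.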
With `CCOc1ccccc1NC(=O)Cn1nc(C2CC2)cc1C(=O)N1CCCC1`, the RP-LC retention time came to 850 s.

Compound `CC(C)c1nnc(C2CN(C(=O)c3cccn3C)CC23CCOCC3)o1` (stereo not given) gave an RP-LC retention time of 639 s.

Regarding `COc1ccccc1CNC(=O)Cn1nc2c(N3CCCCCC3)nccn2c1=O`, the RP-LC retention time came to 694 s.

For `O=C(Nc1cnn(-c2ncc(N3CCCCC3)cn2)c1)c1ccc(C(F)(F)F)cc1`, the RP-LC retention time was 1010 s.

`CC1CCCN(CCCNC(=O)c2nnc(-c3ccc(S(=O)(=O)N4CCCC4)cc3)o2)C1` (stereo not given) displayed an RP-LC retention time of 642 s.

In the case of `CCOC(=O)COC(=O)c1cn(-c2cccc(C)c2)c(=O)c2ccccc12`, the RP-LC retention time was 718 s.

Turning to `COc1ccc(-c2nc(C)cc(C)c2CNC(=O)c2ccc(Br)o2)cc1`, the RP-LC retention time was 634 s.

`O=C(N[C@@H]1CN(Cc2ccc(Cl)cc2F)CC[C@@H]1CO)C1CC1` registered an RP-LC retention time of 598 s.

On to `O=C(NCc1ccc2c(c1)OCO2)c1c(O)c2cccnc2n(Cc2ccccc2)c1=O`, for which the RP-LC retention time was determined as 1290 s.

As to `CCC(=O)N1CC(n2cc(C(=O)NCC3CC3)nn2)C1`, the RP-LC retention time stood at 617 s.

`CC(=O)N1CCN(c2nc(-c3ccncc3)nc3c2CCC3)CC1` returned an RP-LC retention time of 576 s.

`Cc1ccc(C)c(NC(=O)Cn2ccc3sccc3c2=O)c1`: the RP-LC retention time amounted to 742 s.

On to `O=C(NCCc1cccs1)C1CCN(C(=O)c2ncn3c2COC(c2ccc(Cl)cc2)C3)CC1` (stereo not given), for which the RP-LC retention time came out at 808 s.

`COc1cc2c(cc1CNC(=O)c1cccs1)OCCCO2` registered an RP-LC retention time of 780 s.

In turn, `CCc1cccc(NS(=O)(=O)c2ccc3c(c2)CCCC(=O)N3)c1` gave an RP-LC retention time of 780 s.

For `CC(=O)c1ccc(C)cc1OC(=O)c1cccc2nc(C)oc12`, the RP-LC retention time worked out at 661 s.

Consider `CCCN(C)c1nccnc1OC1CCN(C(=O)CC)C1` (stereo not given), for which the RP-LC retention time turned out to be 694 s.

As for `CN(C)c1cnc(-n2cc(NC(=O)CCCc3ccccc3)cn2)nc1`, the RP-LC retention time stood at 724 s.

With `Cc1noc(-c2nn(C)c3c2CN(C(=O)Nc2ccccc2Cl)CC3)n1`, the RP-LC retention time amounted to 725 s.

In the case of `CCSc1nnc(-c2nn(C)c3c2CN(S(=O)(=O)c2ccc(Cl)cc2)CC3)n1CC`, the RP-LC retention time was 983 s.

The compound `O=C(Nc1nnc(C2CCCO2)o1)c1cc2ccccc2o1` (stereo not given) gave an RP-LC retention time of 655 s.

In turn, `Cc1cccc(-c2noc(-c3nn(-c4ccccc4)ccc3=O)n2)c1` displayed an RP-LC retention time of 898 s.

`Cc1ccc([N+](=O)[O-])cc1NC(=O)Nc1cccc(F)c1` displayed an RP-LC retention time of 1010 s.

In turn, `COCCc1noc(C2CN(S(=O)(=O)c3cccnc3)C2)n1` yielded an RP-LC retention time of 669 s.

With `CC1=CC(=O)CC(C)(C)C1(O)/C=C/C(C)=C/C(=O)O` (stereo not given), the RP-LC retention time stood at 693 s.

The compound `Cc1ccccc1OCc1nc(-c2cccc(-c3ccn[nH]3)c2)no1` yielded an RP-LC retention time of 1020 s.

In turn, `Cc1nnc(N2CCCC(C(=O)NCc3cccs3)C2)c2nn(-c3ccc(Cl)cc3)c(C)c12` (stereo not given) showed an RP-LC retention time of 742 s.

The compound `COc1ccc(-c2nc3c(s2)CN(C(=O)Nc2ccccc2OC)CC3)cc1` registered an RP-LC retention time of 943 s.

For `O=C(Cn1cccc(-c2nc(-c3ccccc3)no2)c1=O)Nc1ccc2c(c1)OCO2`, the RP-LC retention time was 815 s.

As to `O=C(Cn1cnc2nc(N3CCOCC3)ncc2c1=O)NCc1cccc(C(F)(F)F)c1`, the RP-LC retention time turned out to be 687 s.

`COc1cc(Cl)cc2c1OC=CC(C(=O)Nc1ccc(N3CCOCC3)cc1)=C2` came in with an RP-LC retention time of 979 s.

In turn, `CCCC(=O)N1CCC(C(=O)Nc2nnc(C)s2)CC1` had an RP-LC retention time of 590 s.

Consider `CCn1cnnc1C1CCN(C(=O)c2sccc2C)CC1`, for which the RP-LC retention time amounted to 561 s.

Turning to `CCC(C)(C)NC(=O)c1cc2c(s1)N(CCOC)CCCC2`, the RP-LC retention time is 1020 s.

For the compound `Cc1ccc(NC(=O)Cn2c(N)nc(C)cc2=O)cc1`, the RP-LC retention time is 577 s.

The compound `Cc1cc(C)c(C(=O)N2CCC(CC(=O)NCCCN3CCN(C)CC3)CC2)[nH]1` gave an RP-LC retention time of 566 s.

Compound `CC(C)N1CCn2c(nc3cc(C(=O)NCc4ccc(Br)cc4)ccc32)C1=O` yielded an RP-LC retention time of 761 s.

In the case of `CCCCN(C)C(=O)Cn1c(CNC(=O)c2ccco2)nc2ccccc21`, the RP-LC retention time is 629 s.

With `Cc1c(C(=O)N2CCc3nc(NC(=O)C4CCCO4)sc3C2)cnn1-c1ccccc1` (stereo not given), the RP-LC retention time turned out to be 665 s.

Turning to `CCn1c(C(=O)N2CCC(C(=O)NCc3cccc(OC)c3)CC2)cc2occc21`, the RP-LC retention time came out at 795 s.

Regarding `CC(C)NC(=O)c1ccc2c(c1)nc(CN1CCN(C(=O)NC3CCCCC3)CC1)n2C`, the RP-LC retention time turned out to be 577 s.

In turn, `O=C(c1ccc2c(c1)nnn2CCN1CCOCC1)N1CCSCC1` yielded an RP-LC retention time of 564 s.

Take `CCOC(=O)N1CCN(C(=O)CSc2nncn2C)CC1`: the RP-LC retention time was determined as 560 s.

`Cc1ccc(S(=O)(=O)Nc2cc(-c3cn4ccc(C)cc4n3)ccc2C)cc1` gave an RP-LC retention time of 696 s.

`O=c1cc(-c2ccccc2)c2c(O)cc(O)cc2o1` gave an RP-LC retention time of 721 s.

Compound `CCn1cc2c3c(cccc31)CN(C(=O)c1ccc(Br)o1)CC2` registered an RP-LC retention time of 1050 s.

Compound `COc1ccc2c(CCNC(=O)c3ccc4c(c3)OCCO4)c[nH]c2c1` displayed an RP-LC retention time of 684 s.

In the case of `COc1ccccc1-c1cc(C(=O)N2CCN(c3ccc(=O)n(-c4ccc(F)cc4)n3)CC2)[nH]n1`, the RP-LC retention time was found to be 789 s.

In turn, `CC1CCCCN1CCNC(=O)C1CCN(c2nc3cccnc3s2)CC1` (stereo not given) yielded an RP-LC retention time of 582 s.

`Cc1ccc(-c2csc(-n3nc(C)c(CC(=O)NCc4ccccc4)c3C)n2)cc1` yielded an RP-LC retention time of 1160 s.

On to `Cc1ncc2c(n1)C[C@@H]1CC[C@H]2N1C(=O)Nc1ccc(F)cc1F`, for which the RP-LC retention time is 649 s.

In turn, `O=C1NCCCn2cc(S(=O)(=O)Nc3cccc(Cl)c3)cc21` showed an RP-LC retention time of 680 s.

Consider `Cc1noc(C)c1S(=O)(=O)N1CCC(n2c(C)cnc2-c2ccccc2)CC1`, for which the RP-LC retention time is 682 s.

Take `O=C(NCCCN1CCOCC1)C1CCCN(c2ncnc3c2nc2n3CCCCC2)C1` (stereo not given): the RP-LC retention time worked out at 580 s.

Compound `Cc1ccc(-c2cc3c(=O)n(Cc4nc(-c5ccccc5Cl)no4)ncn3n2)c(C)c1` came in with an RP-LC retention time of 1220 s.

In turn, `O=C(Nc1ccccc1)c1cccc(N2CC(C(=O)NC3CCCCCC3)CC2=O)c1` (stereo not given) came in with an RP-LC retention time of 862 s.

`Cc1ccc(NC(=O)C2CCN(c3nc(C4CCC4)nc4csc(C)c34)CC2)c(C)c1` had an RP-LC retention time of 804 s.

For the compound `CCOc1ccc(-n2c(N3CCN(CC)CC3)nc3cc(C(=O)OC)ccc3c2=O)cc1`, the RP-LC retention time amounted to 683 s.

For the compound `Cc1sc2ncnc(N3CCCC(C)C3)c2c1C(=O)Nc1cc(F)ccc1F` (stereo not given), the RP-LC retention time is 1220 s.

The compound `Cc1nn2c(CNC(=O)c3ccccc3Br)c(C)nc2s1` returned an RP-LC retention time of 610 s.

Compound `CCC(CC)C(c1ccc(Nc2nc3ccccc3s2)cc1)n1cncn1` (stereo not given) displayed an RP-LC retention time of 1150 s.

`CCCNC(=O)N(C1CCOCC1)C1CCN(C(=O)Nc2cccc(C)c2C)CC1` gave an RP-LC retention time of 732 s.

Turning to `CC(C)NC(=O)c1ccc(OCC2CCCN(C(=O)c3ccc(Br)o3)C2)cc1` (stereo not given), the RP-LC retention time turned out to be 876 s.

`CN1C(=O)C(CC(=O)N2CCCCC2)Sc2ncccc21` (stereo not given) registered an RP-LC retention time of 658 s.

`COc1cccc(OC)c1OCC(O)CN1CCN(c2cc(Cl)ccc2C)CC1` (stereo not given) came in with an RP-LC retention time of 615 s.

In the case of `Cc1ccc(C)c(S(=O)(=O)Nc2ccc(C(=O)Nc3ccccc3F)cc2)c1`, the RP-LC retention time was determined as 863 s.

As to `Clc1ccccc1-c1ccc(CNc2ncn[nH]2)o1`, the RP-LC retention time stood at 676 s.

`CCN1c2ccc(F)cc2C(=O)NC12CCN(C(=O)c1ccc(C)cc1C)CC2` had an RP-LC retention time of 861 s.

The compound `CCOc1ccccc1CN1C(=O)c2ccccc2C1C(=O)NC(C)CC` (stereo not given) showed an RP-LC retention time of 899 s.

On to `CCOC(=O)C1CCN(C(=O)C2CCCN(c3nccc(C)n3)C2)CC1` (stereo not given), for which the RP-LC retention time was determined as 698 s.

Compound `NC(=O)C1CCN(c2ncnc3c2cnn3-c2ccc(Cl)cc2)CC1` displayed an RP-LC retention time of 732 s.

Compound `CCc1noc(NC(C)=O)c1-c1ccc(C)c(S(=O)(=O)Nc2ccc(C)c(C)c2)c1` registered an RP-LC retention time of 897 s.

Regarding `CN(C)C(=O)c1ccc2c(c1)nc(CN(C)C(=O)Nc1ccc(Br)cc1)n2C`, the RP-LC retention time is 628 s.

In turn, `Cc1ccc(NC(=O)CSc2ccc(N3CCCC(C(=O)NC4CC4)C3)nn2)cc1` (stereo not given) gave an RP-LC retention time of 659 s.

For the compound `Cc1ccc(C)c(C(=O)Nc2ccc3c(c2)Sc2ncccc2C(=O)N3C(C)C)c1`, the RP-LC retention time turned out to be 922 s.

For the compound `CC(=O)Nc1ccc(C2=NN(C(C)=O)C(c3ccc4c(c3)OCO4)C2)cc1` (stereo not given), the RP-LC retention time came out at 666 s.

Compound `CC1CCc2nc3ncn(CC(=O)Nc4cccc(C#N)c4)c(=O)c3cc2C1` (stereo not given) yielded an RP-LC retention time of 738 s.

`Cc1ccc(-n2c(=O)c3c(cc(C)n3C)n(CC(=O)Nc3cccc(C#N)c3)c2=O)cc1` returned an RP-LC retention time of 822 s.

The compound `Cc1cc(C(=O)N2CCCCC2)c2c(=O)n(CC(=O)c3c(C)n(C)c4ccccc34)c(=O)n(C)c2n1` gave an RP-LC retention time of 934 s.

The compound `O=C(Nc1cccc(OCc2nnc(-c3ccccc3)o2)c1)C1COc2ccccc2O1` (stereo not given) gave an RP-LC retention time of 1010 s.
